Patent US11414374B2, “Crystalline forms of vilanterol trifenatate and processes for their preparation” (Hovione Scientia Limited, priority 2017, dated 2022)

Legend:
Type in all cases: physicochemical
[1] = Storage stability of exposed powder at 25° C. and 60% RH for seven days, compared by XRPD; details: for Stability test (25° C. 60% RH-7 d): resulting form
Protocol: Approximately 30 mg of exposed powder of comparative form 1 and new forms II and III, respectively, were stored at 25′C and 60% RH for seven days. Each powder was then analyzed by XRPD and its diffraction pattern was compared with that of untreated sample.

[2] = Visual solubility in differing solvents (European Pharmacopeia 6.0 section 5.11)
Protocol: Visual solubility of certain forms (compounds) in differing solvents was assessed according to the procedure described in the European Pharmacopeia 6.0 section 5.11. p. The compound was shaken vigorously for 1 min and placed in a constant temperature device for 15 min at 25.0±0.5° C. If the compound was not completely dissolved, the shaking was repeated for 1 min and the tube placed in a constant temperature device for 15 min. 50 mg of compound was weighed in a stoppered tube, 0.05 mL of the solvent added and the Dissolving Procedure (see above) followed. If the compound was completely dissolved, it is very soluble. If the compound was not completely dissolved, a further 0.45 mL of the solvent was added and the Dissolving Procedure (see above) followed. […] If the compound was still not completely dissolved, still further 1.0 mL of the solvent was added and the Dissolving Procedure (see above) followed. If the compound was completely dissolved, it is soluble. If the compound was still not completely dissolved, another 3.5 mL of the solvent was added and the Dissolving Procedure (see above) followed. […] If the compound was still not completely dissolved, the compound is slightly soluble or very slightly soluble. In this case, and the suspension was heated up to the boiling point (max 80° C.) under stirring to verify the solubility at high temperature. The hot solution was afterwards cooled to room temperature to observe whether the compound precipitates. If the compound at room temperature was completely dissolved, it is soluble at high temperature. [table]

[3] = Micronization in fluid energy jet mill: particle size distribution and XRPD of product
Excerpt: Vilanterol trifenatate form II is fed to a fluid energy jet mill at 10-100 g/h, operated with N2 at a pressure of 1 to 8 bar for the venturi and a pressure of 1 to 8 bar for the ring.

[4] = Dynamic vapor sorption (DVS) analysis / hygroscopicity (EP 7.0 classification); details: for Change In Mass (%) Desorption / Change In Mass (%) Hysteresis / Change In Mass (%) Sorption: DVS, 25° C.; for Hygroscopically (DVS): DVS hygroscopicity class; for XRPD after DVS: resulting form after DVS
Protocol: The hygroscopicity value is directly obtained from the sorption row at 80% RH, cycle 1.
Hygroscopicity of a sample of each of new form II and comparative form I was determined using the protocol provided below in conditions of 80% RH and 25° C.
The sample was subjected to DVS measuring using SMS-DVS intrinsic. The kinetic moisture sorption measurement was performed at 25° C. and in a RH % range described in the following: • From 40% RH to 90% RH • Form 90% RH to 0% RH • From 0% RH to 90% RH • From 90% RH to 0% RH
The sample was analyzed by XRPD after the analysis.
The hygroscopicity was calculated using the following equation: % Weight Change=[(W2−W1)/W1]*100 W1: weight of sample at the start of the experiment (25° C. and 40% RH) W2: weight of sample at 25° C. and 80% RH in the first absorption cycle

[5] = XRPD after Grinding; details: resulting form after grinding
[6] = Stability test (sealed vial 18 h), form by XRPD; details: resulting form
[7] = TGA / TGA-EGA thermogravimetric analysis with evolved gas analysis; details: for EGA: evolved solvent identified; for TGA overall weight loss: overall loss of the named solvent(s)
Protocol: The analysis was carried out using the Mettler Toledo TGA/DSC1. The sample was weighed in an aluminum pan hermetically sealed with an aluminum pierced cover. The analysis was performed heating the sample from 25° C. to 320° C. at 10° C./min. TGA-FTIR coupled with Thermo Nicoled is 10 spectometer. The analysis was carried out using the mettler toledo TGA/DSC1. The sample was weighed in an aluminum pan hermetically sealed with an aluminum pierced cover. The analysis was performed heating the sample from 25° C. to 320° C. at 10° C./min. The evolved gas is compared with ft-ir spectra database for identification.

[8] = Stability test (60° C. 75% RH-3 d), form by XRPD; details: resulting form
[9] = Stability test (exposed sample 16 h), form by XRPD; details: resulting form
[10] = DSC - differential scanning calorimetry; details: for DSC (onset) endo. degradation: endothermic event: degradation; for DSC (onset) endo. solvent loss + melting: endothermic event: solvent loss + melting (Form 6: + Form 2 melting; Form 14: + Form 3 melting); for DSC (onset) endo. solvent loss: endothermic event: solvent loss
Protocol: The analysis was carried out using a DSC Q200 TA instruments equipped with a refrigerator cooling system (RCS40) and autosampler. The sample was weighed in an aluminum hermetic pan with pinhole. The analysis was performed heating the sample from 25° C. to 350° C. at 10° C./min.

## OCc1cc([C@@H](O)CNCCCCCCOCCOCc2c(Cl)cccc2Cl)ccc1O [form III, vilanterol trifenatate]
[1]; 60% RH and 25° C. for 7 days, exposed powder
  modifications in XRPD pattern after storage (structural stability): No significant modifications in XRPD pattern
[2]; THF at 25° C.
  visual solubility in tetrahydrofuran (THF): sparingly soluble (another 3.5 mL of the solvent was added and the Dissolving Procedure (see above) followed. If the compound was completely dissolved, it is sparingly soluble.)
[2]; water at 75° C.
  visual solubility in water: insoluble
[3]; after fluid energy jet milling
  XRPD of micronized product versus starting material: identical to the one of the starting material
[3]; fluid energy jet mill, N2
  particle size distribution Dv90 after micronization: below 10 μm
[4]; 80% RH and 25° C.
  hygroscopicity classification according to the European Pharmacopoeia (EP, version 7.0): slightly hygroscopic
[4]; 80% RH and 25° C., first sorption cycle, relative to 40% RH
  mass increase by dynamic vapor sorption analysis (hygroscopicity): 1.1%
[4]; Cycle 1, target RH 0.0%
  Change In Mass (%) Desorption: −0.017%
[4]; Cycle 1, target RH 10.0%
  Change In Mass (%) Desorption: 0.002%
[4]; Cycle 1, target RH 20.0%
  Change In Mass (%) Desorption: 0.015%
[4]; Cycle 1, target RH 30.0%
  Change In Mass (%) Desorption: 0.024%
[4]; Cycle 1, target RH 40.0%
  Change In Mass (%) Desorption: 0.035%
  Change In Mass (%) Hysteresis: 0.035%
  Change In Mass (%) Sorption: 0.000%
[4]; Cycle 1, target RH 50.0%
  Change In Mass (%) Desorption: 0.280%
  Change In Mass (%) Hysteresis: 0.271%
  Change In Mass (%) Sorption: 0.008%
[4]; Cycle 1, target RH 60.0%
  Change In Mass (%) Desorption: 0.421%
  Change In Mass (%) Hysteresis: 0.399%
  Change In Mass (%) Sorption: 0.022%
[4]; Cycle 1, target RH 70.0%
  Change In Mass (%) Desorption: 0.567%
  Change In Mass (%) Hysteresis: 0.530%
  Change In Mass (%) Sorption: 0.037%
[4]; Cycle 1, target RH 80.0%
  Change In Mass (%) Desorption: 1.144%
  Change In Mass (%) Hysteresis: 0.061%
  Change In Mass (%) Sorption: 1.083%
[4]; Cycle 1, target RH 90.0%
  Change In Mass (%) Desorption: 1.857%
  Change In Mass (%) Sorption: 1.857%
[4]; Cycle 2, target RH 0.0%
  Change In Mass (%) Sorption: −0.017%
[4]; Cycle 2, target RH 10.0%
  Change In Mass (%) Sorption: −0.003%
[4]; Cycle 2, target RH 20.0%
  Change In Mass (%) Sorption: 0.008%
[4]; Cycle 2, target RH 30.0%
  Change In Mass (%) Sorption: 0.016%
[4]; Cycle 2, target RH 40.0%
  Change In Mass (%) Sorption: 0.025%
[4]; Cycle 2, target RH 50.0%
  Change In Mass (%) Sorption: 0.033%
[4]; Cycle 2, target RH 60.0%
  Change In Mass (%) Sorption: 0.041%
[4]; Cycle 2, target RH 70.0%
  Change In Mass (%) Sorption: 0.056%
[4]; Cycle 2, target RH 80.0%
  Change In Mass (%) Sorption: 1.111%
[4]; Cycle 2, target RH 90.0%
  Change In Mass (%) Sorption: 1.952%
[4]; XRPD after DVS analysis, compared with untreated sample
  stability / XRPD pattern after DVS analysis: no significant modifications

## OCc1cc([C@@H](O)CNCCCCCCOCCOCc2c(Cl)cccc2Cl)ccc1O [form IX, vilanterol trifenatate]
[5]; listed as Form 9
  XRPD after Grinding: Amorphous
[1]; listed as Form 9
  Stability test (25° C. 60% RH-7 d): Form 9
[6]; listed as Form 9
  Stability test (sealed vial 18 h): Form 9
[7]; listed as Form 9
  EGA: Nitromethane
[8]; listed as Form 9
  Stability test (60° C. 75% RH-3 d): Partial conversion
[4]; listed as Form 9
  Hygroscopically (DVS): Slightly
  XRPD after DVS: Low crystallinity
[9]; listed as Form 9
  Stability test (exposed sample 16 h): Form 9
[10]; listed as Form 9
  DSC (onset) endo. degradation: endo. 188 °C
  DSC (onset) endo. solvent loss + melting: endo. 100 °C solvent
  DSC (onset) endo. solvent loss: endo. 68 °C solvent loss

## OCc1cc([C@@H](O)CNCCCCCCOCCOCc2c(Cl)cccc2Cl)ccc1O [form VI, vilanterol trifenatate]
[1]; listed as Form 6
  Stability test (25° C. 60% RH-7 d): Form 1 (almost
[6]; listed as Form 6
  Stability test (sealed vial 18 h): Form 6
[7]; listed as Form 6
  EGA: 2-Propanol
  TGA overall weight loss: One weight loss of 73% w/w
[8]; listed as Form 6
  Stability test (60° C. 75% RH-3 d): Amorphous
[4]; listed as Form 6
  Hygroscopically (DVS): Slightly hygroscopic (Increase in mass is less than 2% and equal to or greater than 0.2%)
  XRPD after DVS: Form 6
[9]; listed as Form 6
  Stability test (exposed sample 16 h): Form 12
[10]; listed as Form 6
  DSC (onset) endo. solvent loss + melting: endo. 80 °C solvent loss +
  DSC (onset) endo. solvent loss: endo. 65 °C solvent loss

## OCc1cc([C@@H](O)CNCCCCCCOCCOCc2c(Cl)cccc2Cl)ccc1O [form VIII, vilanterol trifenatate]
[5]; listed as Form 8
  XRPD after Grinding: Strong crystallinity
[1]; listed as Form 8
  Stability test (25° C. 60% RH-7 d): Strong crystallinity
[6]; listed as Form 8
  Stability test (sealed vial 18 h): Form 8
[7]; listed as Form 8
  EGA: Anisole
  TGA overall weight loss: of approx.. 68% w/w
[8]; listed as Form 8
  Stability test (60° C. 75% RH-3 d): Partial conversion
[4]; listed as Form 8
  Hygroscopically (DVS): Not hygroscopic
  XRPD after DVS: Form 8
[9]; listed as Form 8
  Stability test (exposed sample 16 h): Form 8
[10]; listed as Form 8
  DSC (onset) endo. degradation: endo. 191 °C
  DSC (onset) endo. solvent loss + melting: endo. 136 °C solvent
  DSC (onset) endo. solvent loss: endo. 66 °C solvent loss

## OCc1cc([C@@H](O)CNCCCCCCOCCOCc2c(Cl)cccc2Cl)ccc1O [form X, vilanterol trifenatate]
[5]; listed as Form 10
  XRPD after Grinding: Amorphous
[1]; listed as Form 10
  Stability test (25° C. 60% RH-7 d): Form 1
[6]; listed as Form 10
  Stability test (sealed vial 18 h): Form 10
[7]; listed as Form 10
  EGA: Ethanol
[8]; listed as Form 10
  Stability test (60° C. 75% RH-3 d): Form 1
[4]; listed as Form 10
  Hygroscopically (DVS): Slightly
  XRPD after DVS: Form 1
[9]; listed as Form 10
  Stability test (exposed sample 16 h): Form 10
[10]; listed as Form 10
  DSC (onset) endo. degradation: endo. 188 °C
  DSC (onset) endo. solvent loss + melting: endo. 69 °C solvent
